Read-outs that look alike come from different tables or passages of the source.
Legend:
PPARγ = molecular target: T1, PPARγ (Mus musculus, UniProt P37238); experiment: GAL4-PPARγ reporter (luciferase) activation assay in HepG2 cells; settings: for fold induction at 100 µM: HepG2, 48 h, read-out: Relative activity (control = 1) PPARγ; for PPARγ-activating effect (in words): conclusion from Table 1
T1 sequence (P37238 202-505): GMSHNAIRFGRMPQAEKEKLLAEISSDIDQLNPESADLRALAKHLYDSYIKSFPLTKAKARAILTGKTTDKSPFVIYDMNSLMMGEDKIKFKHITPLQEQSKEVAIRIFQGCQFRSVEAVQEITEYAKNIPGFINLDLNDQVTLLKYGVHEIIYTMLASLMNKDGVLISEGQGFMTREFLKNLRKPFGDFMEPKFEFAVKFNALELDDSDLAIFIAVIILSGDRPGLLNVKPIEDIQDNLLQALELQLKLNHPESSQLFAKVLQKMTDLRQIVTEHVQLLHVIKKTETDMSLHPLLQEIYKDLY
From the text: To identify a compound having a PPARδ and PPARγ ligand effect, fused gene expression vectors of the DNA-binding domain (GAL4-DNA bindgn domain, GAL4-DBD) of a yeast transcription activated protein and the PPAR ligand binding domains (LBDs) were constructed. Three activation vectors thus constructed were named GAL-PPARα, GAL-PPARδ and GAL-PPARγ respectively.
i) Ligand binding domains (PPAR-LBDs) of mouse peroxisome-proliferator-activated receptors (mPPARα, mPPARδ and mPPARγ) were each amplified by PCR (polymerase chain reaction). As a template employed in the amplification, total RNA was prepared from a fat tissue around mouse epididymis with the use of a total RNA extracting reagent Isogen (manufactured by Nippon Gene) in accordance with the attached manufacturer's instruction. […] PCR was performed by using GeneAmp PCR System Model 9600.
ii) Into one side of each primer thus synthesized, a recognition sequence of a restriction enzyme SmaI or BamHI had been preliminarily inserted so that the primer could be cleaved with the restriction enzyme. After the amplification, the PCR fragment was ligated with pGBT9 DNA-Binding Domain Vector (5.5 kb, having the GAL4-DBD domain and an ampicillin resistance gene Amp^R sequence, manufactured by Clontech) and the vector thus formed was named pGBT9-PPAR-LBD.
iii) A fused gene domain (GAL4-DBD+PPAR-LBD) wherein GAL4-DBD contained in pGBT9-PPAR-LBD was legated to PPARLBD was excised by using HindIII/SalI and transferred into the multiple cloning site (MCS) of an expression vector pZeoSV (3.5 kb, having zeocin resistance gene Zeo^R sequence, manufactured by Clontech) by using HindIII/Xhol. The thus obtained chimeric expression vectors of GAL4-DBD ad PPAR-LBD were named respectively GAL-PPARα, GAL-PPARδ and GAL-PPARγ.
i) DNA sequences were synthesized by using a DNA synthesizer (Beckman DNA Synthesizer oligo1000M, manufactured by Beckman) by repeating the GAL4-DBD binding sequence (GAL4 responsive element, RE or UASG) once (RE×1) or thrice (RE×3). Then appropriate restriction enzyme cites were introduced into both ends and these sequences were ligated together to give a 4-repetition sequence fragment (RE×4). Further, an 8-repetition sequence fragment (RE×8) was formed by using the same.
ii) A DNA sequence wherein TATA box was ligated to the above GAL4 responsive sequence (RE×8) was formed by PCR and then inserted into the 5'-side upstream of the luciferase gene sequence (RE-LUC) in a vector for luciferae assay system (Pica Gene Vector-2, (PGV-B2), Toyo Ink Mfg.). […] RE-LUC containing RE×8 was transferred into cells together with GAL-PPARγ. Then CS-045 (troglitazone), i.e., the ligand of PPARγ was added.
By using the activation vectors and reporter vectors constructed in the above (1) and (2), the PPAR activation effect of a compound was measured by a method involving the following three steps: i) Cotransfection of construction into a host; ii) treatment of cells by adding the compound; and iii) assay of the reporter gene expression level.
HepG2 cells (American Type Culture Collection, Maryland, USA) was inoculated into a collagen type IV treated 96-well plate (manufactured by Iwaki) at a cell density of 1×10^4 /well and incubated for 2 days in the presence of Dulbecco's modified Eagle medium containing 10% of fetal calf serum (FCS) (200 μl/well, FCS-DMEM (GIBCO BRL)). Next, the cells were washed with 100 μl/well of a cell incubation medium (OPTI-MEM I Reduced Serum Medium, manufactured by GIBCO BRL) maintained at 37° C.

PPARδ [1] = settings: literature report; cited from earlier work
PPARα [2] = molecular target: T2, PPARα (Mus musculus, UniProt P23204); experiment: GAL4-PPARα reporter (luciferase) activation assay in HepG2 cells; format: cell-based; settings: read-out: Relative activity (control = 1) PPARα
T2 construct: mPPARα (Gly^165 -Tyr^467); expressed in transfected cells; host or cells: HepG2
T2 sequence (P23204 165-468 limits assumed): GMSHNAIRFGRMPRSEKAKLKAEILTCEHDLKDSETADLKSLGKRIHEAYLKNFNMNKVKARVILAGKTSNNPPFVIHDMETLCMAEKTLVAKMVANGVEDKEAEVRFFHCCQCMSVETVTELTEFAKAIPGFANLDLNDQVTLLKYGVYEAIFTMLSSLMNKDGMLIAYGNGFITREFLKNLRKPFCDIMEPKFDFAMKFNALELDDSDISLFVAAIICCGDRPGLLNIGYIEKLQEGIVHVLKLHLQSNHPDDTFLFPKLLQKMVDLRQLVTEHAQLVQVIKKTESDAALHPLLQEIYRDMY

PPARδ [3] = molecular target: T3, PPARδ (Mus musculus, UniProt P35396); experiment: GAL4-PPARδ reporter (luciferase) activation assay in HepG2 cells; format: cell-based; settings: for fold induction at 100 µM: read-out: Relative activity (control = 1) PPARδ; for PPARδ-activating effect (in words): conclusion from Table 1
T3 construct: mPPARδ (Met^137 -Tyr^439); expressed in transfected cells; host or cells: HepG2
T3 sequence (P35396 137-440 limits assumed): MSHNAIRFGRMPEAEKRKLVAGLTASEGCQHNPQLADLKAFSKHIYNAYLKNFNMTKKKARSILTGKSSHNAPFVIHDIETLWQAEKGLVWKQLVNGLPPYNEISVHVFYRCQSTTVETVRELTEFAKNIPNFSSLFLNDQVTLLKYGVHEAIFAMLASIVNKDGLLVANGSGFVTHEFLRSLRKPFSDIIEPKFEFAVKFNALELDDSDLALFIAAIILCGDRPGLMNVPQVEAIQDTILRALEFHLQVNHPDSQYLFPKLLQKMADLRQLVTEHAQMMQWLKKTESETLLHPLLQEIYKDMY

PPARα [4] = settings: literature report; cited from earlier work
[5] = cited from earlier work
[6] = Test for evaluating cholesterol-lowering effect by using rhesus monkey; format: in vivo; settings: for Decrease in LDL-C (LDL-cholesterol level) / Decrease in TC (serum total cholesterol level): male rhesus monkeys, 30 mg/kg/day in feed, 2 weeks, compared with data before the administration; for Effect of lowering serum total cholesterol level, in particular LDL-cholesterol level (in words): rhesus monkeys, conclusion from Table 2
Protocol: A test for evaluating cholesterol-lowering effect was performed by using rhesus monkeys in accordance with a method described in Br. J. Pharmacol., 118, p.174-178, 1996.
i) Male rhesus monkeys weighing about 4.5 to 5 kg (Purchased from Hamri) were fed by giving twice a day 50 g/day of a solid feed, which had been prepared by adding 50 ml of water and vitamin C (5 mg/kg/day, manufactured by Sigma) to 50 g of Purina powdery feed (Code #5408, manufactured by Oriental Yeast) and solidifying the mixture, and about 100 g of banana.
ii) The monkeys having been accustomed to the control feed were divided into a control group having 4 animals and test groups each having 3 animals. The animals of the […] were fed with the control feed. On the other hand, the animals of one test group were fed with a composition feed containing 30 mg/kg/day of YM-16683, while those of the other test group were fed with a composition feed containing 30 mg/kg/day of the compound of Production Example 1, each twice a day. To avoid unfinished feeding, banana was given to the animals after taking 50 g of each feed.
iii) The groups were fed with respective feeds for 2 weeks. About 16 hours before the day before the final administration, the animals were fasted and the blood samples were collected from thigh. After measuring body weight, blood collection was performed twice, i.e., before and after the administration of the test compound. Each blood sample thus collected was heparinized and serum was separated therefrom. Next, the total cholesterol level (TC) and LDL-cholesterol level (LDL-C) were measured by the enzymatic method with the use of an automatic analyzer (Model 736-10, Hitachi) (Table 2).
Decrease was calculated by comparing the data before the administration.

[7] = cited from earlier work; for Decrease in serum cholesterol level: normal subjects
[8] = test compound 10^-4 M, HepG2 cells, 48 hours, luciferase activity corrected by β-galactosidase, DMSO control = 1.0

CCCCC[C@H](O)/C=C/[C@@H]1[C@H]2C/C(=C/CCCC(=O)O)C[C@H]2C[C@H]1O [cPGI2, carbaprostacyclin]
fold induction at 100 µM (PPARγ): 1.6 | PPARδ activation / ligand activity (in words) (PPARδ [1]): has activities of both of PPARα and PPARδ ligands | fold induction at 100 µM (PPARα [2]; HepG2, 48 h): 15.2 | fold induction at 100 µM (PPARδ [3]; HepG2, 48 h): 34 | PPARα activation / ligand activity (in words) (PPARα [4]): has activities of both of PPARα and PPARδ ligands

CCOC(=O)C(C)(C)Oc1ccc(Cl)cc1 [Clofibrate]
fold induction at 100 µM (PPARγ): 0.9 | fold induction at 100 µM (PPARα [2]; HepG2, 48 h): 2.2 | fold induction at 100 µM (PPARδ [3]; HepG2, 48 h): 1.3

CCC(C)(C)C(=O)O[C@H]1C[C@@H](C)C=C2C=C[C@H](C)[C@H](CC[C@@H]3C[C@@H](O)CC(=O)O3)[C@H]21 [simvastatin]
Decrease in serum cholesterol level ([5]; patient with hyperlipemia, total serum cholesterol level of 220 mg/dl or above): about 20% | Decrease in serum cholesterol level ([5]; phase I clinical test, normal subjects, about 1 week after the initiation of the administration): about 20%

Cc1cccc(Nc2cc(Cl)nc(SCC(=O)O)n2)c1C [Wy 14,643, prinixic acid]
fold induction at 100 µM (PPARγ): 1.8 | PPARα activation / ligand activity (in words) (PPARα [4]): ligand specific to PPARα

CCc1ccc(CCOc2ccc(CC3SC(=O)NC3=O)cc2)nc1 (centres unmarked) [Pioglitazone]
fold induction at 100 µM (PPARα [2]; HepG2, 48 h): 1.5 | fold induction at 100 µM (PPARδ [3]; HepG2, 48 h): 1.4

CCCc1c(OCCCOc2ccc(CC(=O)O)cc2)ccc(C(C)=O)c1O [Production Example 1, p-[3-(4-acetyl-3-hydroxy-2-propylphenoxy)propoxy]phenylacetic acid]
fold induction at 100 µM (PPARγ): 10.3 | PPARγ-activating effect (in words) (PPARγ): effect of activating PPARδ and PPARγ | Decrease in LDL-C (LDL-cholesterol level) [6]: 34% | Decrease in TC (serum total cholesterol level) [6]: 29% | Effect of lowering serum total cholesterol level, in particular LDL-cholesterol level (in words) [6]: excellent effect of lowering serum total cholesterol level, in particular, LDL-cholesterol level | fold induction at 100 µM (PPARα [2]; [8]): 0.6 | PPARδ-activating effect (in words) (PPARδ [3]): effect of activating PPARδ and PPARγ | fold induction at 100 µM (PPARδ [3]; [8]): 83.5

CCCCC[C@H](O)/C=C/[C@@H]1[C@H]2C/C(=C/CCCC(=O)O)O[C@H]2C[C@H]1O [PGI2, prostacyclin]
PPARδ activation / ligand activity (in words) (PPARδ [1]): activates neither PPARα nor PPARδ | PPARα activation / ligand activity (in words) (PPARα [4]): activates neither PPARα nor PPARδ

CCCc1c(OCCCSc2nnc(SCC(=O)O)s2)ccc(C(C)=O)c1O [YM-16638]
fold induction at 100 µM (PPARγ): 2.5 | PPARγ-activating effect (in words) (PPARγ): effect of activating PPARδ and PPARγ | Decrease in LDL-C (LDL-cholesterol level) [6]: 14% | Decrease in TC (serum total cholesterol level) [6]: 33% | Effect of lowering serum total cholesterol level, in particular LDL-cholesterol level (in words) [6]: excellent effect of lowering serum total cholesterol level, in particular, LDL-cholesterol level | fold induction at 100 µM (PPARα [2]; [8]): 1 | PPARδ-activating effect (in words) (PPARδ [3]): effect of activating PPARδ and PPARγ | fold induction at 100 µM (PPARδ [3]; [8]): 46.2 | Effect of lowering serum triglyceride level (in words) ([7]; humans): only a weak effect | Decrease in serum cholesterol level ([7]; administration dose 60 mg): about 26% | Decrease in serum cholesterol level ([7]; administration dose 120 mg): ~41%
